The results in this text go back to patent publication US4863933A, “3-hydroxypyridines” (Smith Kline & French Laboratories Limited, priority 1986, dated 1989).

Molecules are shown by their SMILES.

Test [1] addresses T1, histamine H1-receptor (guinea pig ileum) (Cavia porcellus, UniProt P31389).
T1 construct: an isolated portion of the guinea pig ileum is secured under tension; from tissue; host or cells: isolated guinea pig ileum
As to the kind of experiment: in vitro guinea pig ileum test (histamine H1-antagonist activity). Conditions: isolated guinea pig ileum, magnesium free Tyrode solution, 30° C., 8 min contact, histamine as agonist; read-out: pA2 ileum (converted). It is filed as cell-based. The procedure:
In this test an isolated portion of the guinea pig ileum is secured under tension (500 mg) between an anchorage and a transducer in a 10 ml tissue bath and immersed in magnesium free Tyrode solution with constant aeration at a temperature of 30° C. The output from the transducer is amplified. The amplified output is in turn fed to a flat bed recorder. Measured amounts of histamine are added to the tissue bath so that the histamine concentration increases step-wise until the force of the contraction reaches a maximum. The tissue bath is washed out and filled with fresh magnesium free Tyrode solution containing compound under test. The solution is left in contact with the tissue for 8 min. and measured amounts of histamine are added again until a maximum contraction is recorded. The assay is repeated with increasing concentrations of test compound and the dose of histamine giving 50% of maximum contraction is noted. A dose ratio (DR) was calculated by comparing the concentrations of histamine required to produce 50% maximum response in the absence and in the presence of the antagonist. A plot of Log DR-1 against Log D (the concentration of compound under test) is made and the point of intersection with the Log (DR-1) ordinate is taken as the measure of the activity (pA2 value).

The next test deals with histamine H1-receptor. As to the kind of experiment: in vivo inhibition of histamine induced bronchoconstriction in anaesthetised guinea pigs. Conditions: intravenous antagonist dose giving DR-1 = 10, histamine dose-response 5 minutes after antagonist. On the procedure: Guinea pigs of either sex are anaesthetised by intraperitoneal injection of sodium pentobarbitone, 90 mg/kg. The trachea is cannulated. The animal is respired artificially with a fixed volume of air just adequate to inflate the lungs. The pressure needed to inflate the lungs is monitored from the respiratory system using a pressure transducer. Intravenous injection of histamine causes dose-dependent increases in the pressure to inflate the lungs reflecting the bronchoconstrictor action of histamine. Responses to histamine can be antagonised using histamine H1 -receptor antagonists.
Dose-response curves to histamine are established at 20, 40, 80, 160 and 320 nmols/kg. Antagonists are then administered by intravenous injection and 5 minutes later a new histamine dose-response curve is established increasing the doses of histamine as necessary. The effect of the antagonist can be quantified by the displacement, to the right, of the histamine dose-response curve, expressed as a dose-ratio. A series of doses of antagonists may be given to each animal allowing calculation of dose-ratios for each dose of antagonist.

T1 sequence (P31389 whole entry): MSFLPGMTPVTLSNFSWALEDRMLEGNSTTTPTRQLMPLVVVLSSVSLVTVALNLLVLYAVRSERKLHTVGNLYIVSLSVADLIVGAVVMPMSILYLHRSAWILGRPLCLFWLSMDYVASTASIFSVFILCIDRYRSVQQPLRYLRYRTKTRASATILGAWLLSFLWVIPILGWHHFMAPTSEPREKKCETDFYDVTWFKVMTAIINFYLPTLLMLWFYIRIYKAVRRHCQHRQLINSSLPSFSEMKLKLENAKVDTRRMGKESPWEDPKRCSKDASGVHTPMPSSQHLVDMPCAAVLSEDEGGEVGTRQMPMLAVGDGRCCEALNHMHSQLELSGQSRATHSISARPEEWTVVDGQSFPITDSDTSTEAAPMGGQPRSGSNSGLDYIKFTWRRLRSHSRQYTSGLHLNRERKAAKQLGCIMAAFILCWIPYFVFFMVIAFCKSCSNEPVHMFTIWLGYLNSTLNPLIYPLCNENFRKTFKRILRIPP

As for `Cc1cc(Br)cnc1CCCCNc1ncc(Cc2cccnc2)cc1O` [1(h), 2-[4-(5-Bromo-3-methylpyrid-2-yl)butylamino]-3-hydroxy-5-(pyrid-3-ylmethyl)pyridine], the Kb in test [1] is 1.95 nM. Moreover, in the test on histamine H1-receptor, the “Guinea Pig bronchoconstriction DR-1 = 10” value stood at 0.016 μm/kg.

In the case of `Cc1cc(Br)cnc1CCCCNc1ncc(Cc2cccnc2)cc1OP(=O)(O)O` [1(i), 2-[4-(5-Bromo-3-methylpyrid-2-yl)butylamino]-5-(pyrid-3-ylmethyl)pyrid-3-yloxyphosphate], the Kb in test [1] is 8.13 nM. For the same molecule, the “Guinea Pig bronchoconstriction DR-1 = 10” value in the test with histamine H1-receptor was found to be 0.033 μm/kg. For `Oc1cc(Cc2cccnc2)cnc1NCCCC1CCCc2cccnc21` (stereo not shown) [2(e), 2-[3-(5,6,7,8-Tetrahydroquinol-8-yl)propylamino]-3-hydroxy-5-(pyrid-3-ylmethyl)pyridine] the same measures were 9.55 nM and 0.038 μm/kg. Consider `Cc1cc(Br)cnc1CCCNc1ncc(Cc2cccnc2)cc1O` [3(h), 2-[3-(5-Bromo-3-methylpyrid-2-yl)-propylamino]-3-hydroxy-5-(pyrid-3-ylmethyl)pyridine], for which the Kb in test [1] was 1.51 nM.
